Reference: patent US6156700A, “3-(1,2-Benzisothiazol- and isoxazol-5-yl)-2,4(1H,3H)-pyrimidinedione or thione and 3-(1,2-benzisothiazol- and isoxazol-5-yl)-4(3H)-pyrimidinone or thione herbicidal agents” (American Cyanmid Company, priority 1998, dated 2000)

Legend:
CYPIR Rice Flatsedge [1] = experiment: Postemergence weed control, flooded paddy (Table IV); assay type: in vivo, Cyperus iria; set-up: scale not given here
How it was run: (§1)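 Herbicidal effect is scored visually on a rating scale three to four weeks after compounds, in aqueous/acetone 50/50 v/v, are added to flood water at roughly 0.0313 to 0.500 kg/ha. Plants: weeds 3 to 5 cm tall, rice at 1.5 to 2.5 leaves.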

CYPIR Rice Flatsedge [2] = experiment: Preemergence weed control, flooded paddy (Table III); assay type: in vivo, Cyperus iria; set-up: scale not given here
Method: (§2) Preemergence herbicidal activity under flooded paddy conditions is determined as follows: plant seeds or propagating organs are planted in the top 0.5 cm of silt loam soil in 32 oz. plastic containers with a diameter of 10.5 cm and no drainage holes. Water is added to these containers and maintained at 1.5 to 3 cm above the soil surface for the duration of the experiment. The test compounds are applied as aqueous/acetone mixtures 50/50 v/v pipetted directly into the flood water to give the equivalent of about 0.0313 to 0.500 kg/ha of active ingredient. The treated containers are placed on greenhouse benches and cared for in accordance with conventional greenhouse procedures. Three to four weeks after treatment, the test is terminated and each container is examined and herbicidal effect rated according to the rating system provided in Example 185. The compounds evaluated are reported by compound number given in Example 185.

[3] = test system: Barnyardgrass, Echinochloa crus-galli; experiment: Preemergence herbicidal evaluation, ECHCG; assay type: in vivo, (L.) Beau; conditions: 0.2500 kg/ha
How it was run: (§3)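 Preemergence spray, aqueous acetone solution, ~0.0156–0.500 kg/ha, applied to freshly seeded soil cups. Greenhouse, 4–5 wk. Visual 0–9 rating vs untreated control (stand, vigor, malformation, size, chlorosis, overall appearance).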

[4] = test system: Wheat, Winter, cv Riband, Triticum aestivum; experiment: Postemergence herbicidal evaluation, TRZAWR; assay type: in vivo
How it was run: (§4)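 Each compound, dispersed in a 1:1 acetone–water mixture bearing 0.5% TWEEN 20, was sprayed onto roughly two-week-old seedlings at about 0.0157–0.500 kg/ha. Visual 0–9 ratings against control were made 4–5 weeks post-treatment and averaged over repeat tests.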

Corn, Field, Zea mays = experiment: Preemergence herbicidal evaluation, ZEAMX; assay type: in vivo, L.; conditions: 0.2500 kg/ha
How it was run: as §3

Galium, Galium aparine = experiment: Postemergence herbicidal evaluation, GALAP; assay type: in vivo
How it was run: as §4

[5] = test system: Velvetleaf, Abutilon theophrasti; experiment: Preemergence herbicidal evaluation, ABUTH; assay type: in vivo, Medic.; conditions: 0.2500 kg/ha
How it was run: as §3

[6] = test system: Rice, Tebonnet, Oryza sativa; experiment: Postemergence herbicidal evaluation, ORYSAT; assay type: in vivo, (L.) Tebonnet
How it was run: as §4

MOOVA Monochoria [7] = experiment: Preemergence weed control, flooded paddy (Table III); assay type: in vivo, Monochoria vaginalis; set-up: scale not given here
Method: as §2

[8] = test system: Ragweed, Common, Ambrosia artemisifolia; experiment: Postemergence herbicidal evaluation, AMBEL; assay type: in vivo, L.
How it was run: as §4

MOOVA Monochoria [9] = experiment: Postemergence weed control, flooded paddy (Table IV); assay type: in vivo, Monochoria vaginalis; set-up: scale not given here
How it was run: as §1

[10] = test system: Ragweed, Common, Ambrosia artemisifolia; experiment: Preemergence herbicidal evaluation, AMBEL; assay type: in vivo, L.; conditions: 0.2500 kg/ha
How it was run: as §3

[11] = test system: ECHORC Watergrass (Calif.); experiment: Postemergence weed control, flooded paddy (Table IV); assay type: in vivo, Echinochloa oryzoides; set-up: scale not given here
How it was run: as §1

[12] = test system: SAGPY Arrowhead (Pygmaea); experiment: Preemergence weed control, flooded paddy (Table III); assay type: in vivo, Sagittaria pygmaea; set-up: scale not given here
Method: as §2

[13] = test system: Morningglory Spp., Ipomoea Spp.; experiment: Preemergence herbicidal evaluation, IPOSS; assay type: in vivo; conditions: 0.2500 kg/ha
Excerpt: Results of herbicide evaluation are expressed on a rating scale (0-9). The scale is based upon a visual observation of plant stand, vigor, malformation, size, chlorosis and overall plant appearance as compared with a control.
The preemergence herbicidal activity of the test compounds of the present invention is exemplified by the following tests in which the seeds of a variety of monocotyledonous and dicotyledonous plants are separately mixed with potting soil and planted on top of approximately one inch of soil in separate pint cups. After planting, the cups are sprayed with the selected aqueous acetone solution containing test compound in sufficient quantity to provide the equivalent of about 0.0156 to 0.500 kg per hectare of test compound per cup. The treated cups are then placed on greenhouse benches, watered and cared for in accordance with conventional greenhouse procedures. From four to five weeks after treatment, the tests are terminated and each cup is examined and rated according to the rating system provided in Example 185.
The compounds evaluated are reported by compound number given in Example 185.

[14] = test system: Sicklepod, Cassia obtusifolia; experiment: Postemergence herbicidal evaluation, CASOB; assay type: in vivo, L.
How it was run: as §4

[15] = test system: ECHORC Watergrass (Calif.); experiment: Preemergence weed control, flooded paddy (Table III); assay type: in vivo, Echinochloa oryzoides; set-up: scale not given here
Method: as §2

[16] = test system: Foxtail, Green, Setaria viridis; experiment: Postemergence herbicidal evaluation, SETVI; assay type: in vivo, (L.) Beau
How it was run: as §4

COC(=O)C(C)Oc1ccc(C)cc1-c1nsc2ccc(-n3c(=O)cc(C(F)(F)F)n(C)c3=O)cc12 (centres unmarked) [Compound 3]
4.0: herbicidal effect rating ([11]; 0.5000 kg/ha)
8.0: herbicide rating (0-9) ([4]; 0.2500 kg/ha) | herbicidal effect rating ([12]; 0.2500 kg/ha)
7.3: herbicide rating (0-9) (Corn, Field, Zea mays)
7.2: herbicide rating (0-9) ([6]; 0.0630 kg/ha)
2.0: herbicidal effect rating ([11]; 0.2500 kg/ha) | herbicidal effect rating ([12]; 0.0625 kg/ha)
0.0: herbicidal effect rating ([11]; 0.1250 kg/ha) | herbicidal effect rating ([12]; 0.0313 kg/ha)
6.0: herbicidal effect rating ([12]; 0.1250 kg/ha)
9.0: herbicidal effect rating (CYPIR Rice Flatsedge [1]; 0.1250 kg/ha) | herbicidal effect rating (CYPIR Rice Flatsedge [1]; 0.2500 kg/ha) | herbicidal effect rating (CYPIR Rice Flatsedge [1]; 0.5000 kg/ha) | herbicidal effect rating (CYPIR Rice Flatsedge [2]; 0.0313 kg/ha) | herbicidal effect rating (CYPIR Rice Flatsedge [2]; 0.0625 kg/ha) | herbicidal effect rating (CYPIR Rice Flatsedge [2]; 0.1250 kg/ha) | herbicidal effect rating (CYPIR Rice Flatsedge [2]; 0.2500 kg/ha) | herbicidal effect rating (CYPIR Rice Flatsedge [2]; 0.5000 kg/ha) | herbicide rating (0-9) (Galium, Galium aparine; 0.0630 kg/ha) | herbicide rating (0-9) [5] | herbicide rating (0-9) ([6]; 0.2500 kg/ha) | herbicidal effect rating (MOOVA Monochoria [7]; 0.0313 kg/ha) | herbicidal effect rating (MOOVA Monochoria [7]; 0.0625 kg/ha) | herbicidal effect rating (MOOVA Monochoria [7]; 0.1250 kg/ha) | herbicidal effect rating (MOOVA Monochoria [7]; 0.2500 kg/ha) | herbicidal effect rating (MOOVA Monochoria [7]; 0.5000 kg/ha) | herbicide rating (0-9) ([8]; 0.0630 kg/ha) | herbicide rating (0-9) ([8]; 0.2500 kg/ha) | herbicidal effect rating (MOOVA Monochoria [9]; 0.1250 kg/ha) | herbicidal effect rating (MOOVA Monochoria [9]; 0.2500 kg/ha) | herbicidal effect rating (MOOVA Monochoria [9]; 0.5000 kg/ha) | herbicide rating (0-9) [10] | herbicidal effect rating ([12]; 0.5000 kg/ha) | herbicide rating (0-9) [13] | herbicide rating (0-9) ([14]; 0.0630 kg/ha) | herbicide rating (0-9) ([14]; 0.2500 kg/ha) | herbicidal effect rating ([15]; 0.0313 kg/ha) | herbicidal effect rating ([15]; 0.0625 kg/ha) | herbicidal effect rating ([15]; 0.1250 kg/ha) | herbicidal effect rating ([15]; 0.2500 kg/ha) | herbicidal effect rating ([15]; 0.5000 kg/ha) | herbicide rating (0-9) ([16]; 0.0630 kg/ha) | herbicide rating (0-9) ([16]; 0.2500 kg/ha)
8.3: herbicide rating (0-9) [3]
8.8: herbicide rating (0-9) ([4]; 0.0630 kg/ha)

Cn1c(C(F)(F)F)cc(=O)n(-c2ccc3snc(-c4ccccc4)c3c2)c1=O [Compound 4, 1-Methyl-3-(3-phenyl-1,2-benzisothiazol-5-yl)-6-(trifluoromethyl)-2,4(1H,3H)-pyrimidinedione]
7.0: herbicide rating (0-9) (Corn, Field, Zea mays)
3.0: herbicide rating (0-9) ([4]; 0.2500 kg/ha) | herbicide rating (0-9) ([6]; 0.2500 kg/ha)
9.0: herbicidal effect rating (CYPIR Rice Flatsedge [1]; 0.1250 kg/ha) | herbicidal effect rating (CYPIR Rice Flatsedge [1]; 0.2500 kg/ha) | herbicidal effect rating (CYPIR Rice Flatsedge [1]; 0.5000 kg/ha) | herbicidal effect rating (CYPIR Rice Flatsedge [2]; 0.0313 kg/ha) | herbicidal effect rating (CYPIR Rice Flatsedge [2]; 0.0625 kg/ha) | herbicidal effect rating (CYPIR Rice Flatsedge [2]; 0.1250 kg/ha) | herbicidal effect rating (CYPIR Rice Flatsedge [2]; 0.2500 kg/ha) | herbicidal effect rating (CYPIR Rice Flatsedge [2]; 0.5000 kg/ha) | herbicide rating (0-9) [3] | herbicide rating (0-9) (Galium, Galium aparine; 0.2500 kg/ha) | herbicide rating (0-9) [5] | herbicidal effect rating (MOOVA Monochoria [7]; 0.0313 kg/ha) | herbicidal effect rating (MOOVA Monochoria [7]; 0.0625 kg/ha) | herbicidal effect rating (MOOVA Monochoria [7]; 0.1250 kg/ha) | herbicidal effect rating (MOOVA Monochoria [7]; 0.2500 kg/ha) | herbicidal effect rating (MOOVA Monochoria [7]; 0.5000 kg/ha) | herbicide rating (0-9) ([8]; 0.2500 kg/ha) | herbicidal effect rating (MOOVA Monochoria [9]; 0.1250 kg/ha) | herbicidal effect rating (MOOVA Monochoria [9]; 0.2500 kg/ha) | herbicidal effect rating (MOOVA Monochoria [9]; 0.5000 kg/ha) | herbicide rating (0-9) [10] | herbicidal effect rating ([11]; 0.1250 kg/ha) | herbicidal effect rating ([11]; 0.2500 kg/ha) | herbicidal effect rating ([11]; 0.5000 kg/ha) | herbicidal effect rating ([12]; 0.2500 kg/ha) | herbicidal effect rating ([12]; 0.5000 kg/ha) | herbicide rating (0-9) [13] | herbicide rating (0-9) ([14]; 0.2500 kg/ha) | herbicidal effect rating ([15]; 0.0313 kg/ha) | herbicidal effect rating ([15]; 0.0625 kg/ha) | herbicidal effect rating ([15]; 0.1250 kg/ha) | herbicidal effect rating ([15]; 0.2500 kg/ha) | herbicidal effect rating ([15]; 0.5000 kg/ha) | herbicide rating (0-9) ([16]; 0.2500 kg/ha)
2.0: herbicidal effect rating ([12]; 0.0313 kg/ha) | herbicidal effect rating ([12]; 0.0625 kg/ha)
6.0: herbicidal effect rating ([12]; 0.1250 kg/ha)

COC(=O)C(C)Oc1cc(C)c(C)cc1-c1nsc2ccc(-n3c(=O)cc(C(F)(F)F)n(C)c3=O)cc12 (centres unmarked) [Compound 13, Methyl 2-{{6-{5-[3,6-dihydro-3-methyl-4-(trifluoromethyl)-2,6-dioxo-1(2H)-pyrimidinyl]-1,2-benzisothiazol-3-yl}-3,4-xylyl}oxy}propionate]
4.0: herbicide rating (0-9) (Corn, Field, Zea mays)
9.0: herbicidal effect rating (CYPIR Rice Flatsedge [1]; 0.1250 kg/ha) | herbicidal effect rating (CYPIR Rice Flatsedge [1]; 0.2500 kg/ha) | herbicidal effect rating (CYPIR Rice Flatsedge [1]; 0.5000 kg/ha) | herbicidal effect rating (CYPIR Rice Flatsedge [2]; 0.0313 kg/ha) | herbicidal effect rating (CYPIR Rice Flatsedge [2]; 0.0625 kg/ha) | herbicidal effect rating (CYPIR Rice Flatsedge [2]; 0.1250 kg/ha) | herbicidal effect rating (CYPIR Rice Flatsedge [2]; 0.2500 kg/ha) | herbicidal effect rating (CYPIR Rice Flatsedge [2]; 0.5000 kg/ha) | herbicide rating (0-9) [3] | herbicide rating (0-9) [5] | herbicidal effect rating (MOOVA Monochoria [7]; 0.0313 kg/ha) | herbicidal effect rating (MOOVA Monochoria [7]; 0.0625 kg/ha) | herbicidal effect rating (MOOVA Monochoria [7]; 0.1250 kg/ha) | herbicidal effect rating (MOOVA Monochoria [7]; 0.2500 kg/ha) | herbicidal effect rating (MOOVA Monochoria [7]; 0.5000 kg/ha) | herbicide rating (0-9) ([8]; 0.2500 kg/ha) | herbicidal effect rating (MOOVA Monochoria [9]; 0.1250 kg/ha) | herbicidal effect rating (MOOVA Monochoria [9]; 0.2500 kg/ha) | herbicidal effect rating (MOOVA Monochoria [9]; 0.5000 kg/ha) | herbicide rating (0-9) [10] | herbicidal effect rating ([11]; 0.5000 kg/ha) | herbicidal effect rating ([12]; 0.5000 kg/ha) | herbicide rating (0-9) [13] | herbicide rating (0-9) ([14]; 0.2500 kg/ha) | herbicidal effect rating ([15]; 0.0313 kg/ha) | herbicidal effect rating ([15]; 0.0625 kg/ha) | herbicidal effect rating ([15]; 0.1250 kg/ha) | herbicidal effect rating ([15]; 0.2500 kg/ha) | herbicidal effect rating ([15]; 0.5000 kg/ha) | herbicide rating (0-9) ([16]; 0.2500 kg/ha)
2.0: herbicidal effect rating ([12]; 0.0625 kg/ha)
8.5: herbicide rating (0-9) ([4]; 0.2500 kg/ha)
8.0: herbicide rating (0-9) (Galium, Galium aparine; 0.2500 kg/ha) | herbicide rating (0-9) ([6]; 0.2500 kg/ha) | herbicidal effect rating ([11]; 0.2500 kg/ha) | herbicidal effect rating ([12]; 0.2500 kg/ha)
0.0: herbicidal effect rating ([12]; 0.0313 kg/ha)
6.0: herbicidal effect rating ([11]; 0.1250 kg/ha) | herbicidal effect rating ([12]; 0.1250 kg/ha)
